Experiments:
[1] = xn = mol fraction of the nth substance listed; conditions: 101 kPa, Liquid; for speed of sound: Linear variable-path acoustic interferometer
[2] = refractive index (Na D-line) (dimensionless); xn = mol fraction of the nth substance listed; conditions: 101 kPa, Liquid

CC(C)CO [2-methyl-1-propanol] + CC1CCCCC1
x2 = 0
Conditions	mass density, 298.15 K [kg/m3]	mass density, 303.15 K [kg/m3]	mass density, 308.15 K [kg/m3]	refractive index, 298.15 K	refractive index, 303.15 K	refractive index, 308.15 K	speed of sound, 298.15 K [m/s]	viscosity, 298.15 K [mPa·s]	viscosity, 303.15 K [mPa·s]	viscosity, 308.15 K [mPa·s]
[1]	809.31	805.23	801.11	–	–	–	1170	3.097	2.635	2.249
[2]	–	–	–	1.3932	1.3917	1.3896	–	–	–	–

CC(C)CCO [3-methylbutan-1-ol] + CC1CCCCC1
Conditions	mass density, 298.15 K [kg/m3]	mass density, 303.15 K [kg/m3]	mass density, 308.15 K [kg/m3]	refractive index, 298.15 K	refractive index, 303.15 K	refractive index, 308.15 K	speed of sound, 298.15 K [m/s]	viscosity, 298.15 K [mPa·s]	viscosity, 303.15 K [mPa·s]	viscosity, 308.15 K [mPa·s]
[1], x2 = 0	820.17	816.28	812.34	–	–	–	1259	2.779	2.258	1.844
[1], x2 = 0.1002	814.65	810.69	806.74	–	–	–	1255	2.569	2.144	1.719
[1], x2 = 0.2011	809.13	805.14	801.13	–	–	–	1250	2.359	1.976	1.593
[1], x2 = 0.3001	803.62	799.57	795.53	–	–	–	1246	2.151	1.81	1.47
[1], x2 = 0.4016	798.1	794.02	789.92	–	–	–	1242	1.938	1.641	1.343
[1], x2 = 0.5019	792.58	788.45	784.32	–	–	–	1238	1.728	1.472	1.217
[1], x2 = 0.6012	787.06	782.89	778.72	–	–	–	1234	1.519	1.306	1.093
[1], x2 = 0.702	781.54	777.33	773.11	–	–	–	1230	1.307	1.136	0.9662
[1], x2 = 0.8011	776.03	771.78	767.51	–	–	–	1226	1.097	0.9594	0.8412
[1], x2 = 0.9009	770.51	766.22	761.9	–	–	–	1221	0.8861	0.8008	0.7156
[2], x2 = 0	–	–	–	1.4056	1.4034	1.4013	–	–	–	–
[2], x2 = 0.1002	–	–	–	1.4073	1.405	1.4028	–	–	–	–
[2], x2 = 0.2011	–	–	–	1.4089	1.4066	1.4043	–	–	–	–
[2], x2 = 0.3001	–	–	–	1.4105	1.4081	1.4058	–	–	–	–
[2], x2 = 0.4016	–	–	–	1.4121	1.4097	1.4073	–	–	–	–
[2], x2 = 0.5019	–	–	–	1.4137	1.4112	1.4088	–	–	–	–
[2], x2 = 0.6012	–	–	–	1.4153	1.4128	1.4103	–	–	–	–
[2], x2 = 0.702	–	–	–	1.4169	1.4144	1.4118	–	–	–	–
[2], x2 = 0.8011	–	–	–	1.4185	1.4159	1.4133	–	–	–	–
[2], x2 = 0.9009	–	–	–	1.4201	1.4174	1.4148	–	–	–	–

CCCCO [butan-1-ol] + CC1CCCCC1
x2 = 0
Conditions	mass density, 298.15 K [kg/m3]	mass density, 303.15 K [kg/m3]	mass density, 308.15 K [kg/m3]	refractive index, 298.15 K	refractive index, 303.15 K	refractive index, 308.15 K	speed of sound, 298.15 K [m/s]	viscosity, 298.15 K [mPa·s]	viscosity, 303.15 K [mPa·s]	viscosity, 308.15 K [mPa·s]
[1]	808.49	804.6	800.67	–	–	–	1268	2.587	2.254	1.988
[2]	–	–	–	1.3983	1.3959	1.394	–	–	–	–

CCO [ethanol] + CC1CCCCC1
x2 = 0
Conditions	mass density, 298.15 K [kg/m3]	mass density, 303.15 K [kg/m3]	mass density, 308.15 K [kg/m3]	refractive index, 298.15 K	refractive index, 303.15 K	refractive index, 308.15 K	speed of sound, 298.15 K [m/s]	viscosity, 298.15 K [mPa·s]	viscosity, 303.15 K [mPa·s]	viscosity, 308.15 K [mPa·s]
[1]	785.66	781.34	776.99	–	–	–	1161	1.083	0.985	0.8954
[2]	–	–	–	1.3608	1.3589	1.3563	–	–	–	–

CC1CCCCC1 [methylcyclohexane] + CC(C)CCO
x1 = 1
Conditions	mass density, 298.15 K [kg/m3]	mass density, 303.15 K [kg/m3]	mass density, 308.15 K [kg/m3]	refractive index, 298.15 K	refractive index, 303.15 K	refractive index, 308.15 K	speed of sound, 298.15 K [m/s]	viscosity, 298.15 K [mPa·s]	viscosity, 303.15 K [mPa·s]	viscosity, 308.15 K [mPa·s]
[1]	764.99	760.66	756.3	–	–	–	1217	0.6757	0.631	0.5902
[2]	–	–	–	1.4217	1.4192	1.4163	–	–	–	–

CC1CCCCC1 [methylcyclohexane] + CC(C)CO
Conditions	mass density, 298.15 K [kg/m3]	mass density, 303.15 K [kg/m3]	mass density, 308.15 K [kg/m3]	refractive index, 298.15 K	refractive index, 303.15 K	refractive index, 308.15 K	speed of sound, 298.15 K [m/s]	viscosity, 298.15 K [mPa·s]	viscosity, 303.15 K [mPa·s]	viscosity, 308.15 K [mPa·s]
[1], x1 = 0.1003	802.66	798.47	794.29	–	–	–	1175	2.499	2.17	1.841
[1], x1 = 0.2006	796.44	792.18	787.91	–	–	–	1179	2.037	1.79	1.542
[1], x1 = 0.3008	790.71	786.35	782.02	–	–	–	1183	1.63	1.44	1.248
[1], x1 = 0.4037	785.47	781.09	776.69	–	–	–	1188	1.359	1.209	1.058
[1], x1 = 0.5066	780.72	776.29	771.86	–	–	–	1193	1.12	1.017	0.9138
[1], x1 = 0.6052	776.53	772.08	767.64	–	–	–	1198	0.9911	0.906	0.821
[1], x1 = 0.7038	772.84	768.37	763.92	–	–	–	1202	0.8637	0.7964	0.729
[1], x1 = 0.8025	769.44	764.99	760.54	–	–	–	1207	0.7897	0.7317	0.6738
[1], x1 = 0.9011	766.63	762.18	757.75	–	–	–	1212	0.7162	0.6676	0.6189
[1], x1 = 1	764.99	760.66	756.3	–	–	–	1217	0.6757	0.631	0.5902
[2], x1 = 0.1003	–	–	–	1.397	1.3945	1.392	–	–	–	–
[2], x1 = 0.2006	–	–	–	1.4	1.3975	1.395	–	–	–	–
[2], x1 = 0.3008	–	–	–	1.4031	1.4005	1.3979	–	–	–	–
[2], x1 = 0.4037	–	–	–	1.4059	1.4033	1.4007	–	–	–	–
[2], x1 = 0.5066	–	–	–	1.4088	1.4061	1.4034	–	–	–	–
[2], x1 = 0.6052	–	–	–	1.4114	1.4088	1.4062	–	–	–	–
[2], x1 = 0.7038	–	–	–	1.4141	1.4115	1.409	–	–	–	–
[2], x1 = 0.8025	–	–	–	1.4167	1.414	1.4113	–	–	–	–
[2], x1 = 0.9011	–	–	–	1.4194	1.4165	1.4135	–	–	–	–
[2], x1 = 1	–	–	–	1.4217	1.4192	1.4163	–	–	–	–

CC1CCCCC1 [methylcyclohexane] + CC(C)O
Conditions	mass density, 298.15 K [kg/m3]	mass density, 303.15 K [kg/m3]	mass density, 308.15 K [kg/m3]	refractive index, 298.15 K	refractive index, 303.15 K	refractive index, 308.15 K	speed of sound, 298.15 K [m/s]	viscosity, 298.15 K [mPa·s]	viscosity, 303.15 K [mPa·s]	viscosity, 308.15 K [mPa·s]
[1], x1 = 0.1001	777.28	772.86	768.43	–	–	–	1151	1.634	1.441	1.248
[1], x1 = 0.2033	774.39	769.88	765.38	–	–	–	1159	1.35	1.197	1.044
[1], x1 = 0.3065	771.5	766.95	762.32	–	–	–	1166	1.117	1.004	0.8905
[1], x1 = 0.4049	769.55	764.95	760.33	–	–	–	1173	0.9645	0.8716	0.7785
[1], x1 = 0.5034	767.6	763.01	758.34	–	–	–	1181	0.8434	0.7708	0.698
[1], x1 = 0.6022	766.22	761.62	757	–	–	–	1188	0.7815	0.7193	0.6573
[1], x1 = 0.7009	765.17	760.61	756	–	–	–	1195	0.7197	0.6681	0.6167
[1], x1 = 0.8021	764.75	760.25	755.69	–	–	–	1203	0.703	0.6546	0.6061
[1], x1 = 0.9032	764.43	759.88	755.37	–	–	–	1210	0.6864	0.641	0.5955
[1], x1 = 1	764.99	760.66	756.3	–	–	–	1217	0.6757	0.631	0.5902
[2], x1 = 0.1001	–	–	–	1.3822	1.3798	1.3775	–	–	–	–
[2], x1 = 0.2033	–	–	–	1.3879	1.3854	1.3829	–	–	–	–
[2], x1 = 0.3065	–	–	–	1.3936	1.3909	1.3883	–	–	–	–
[2], x1 = 0.4049	–	–	–	1.3983	1.3956	1.3928	–	–	–	–
[2], x1 = 0.5034	–	–	–	1.4029	1.4001	1.3973	–	–	–	–
[2], x1 = 0.6022	–	–	–	1.4068	1.404	1.4013	–	–	–	–
[2], x1 = 0.7009	–	–	–	1.4106	1.408	1.4053	–	–	–	–
[2], x1 = 0.8021	–	–	–	1.4145	1.4118	1.4092	–	–	–	–
[2], x1 = 0.9032	–	–	–	1.4184	1.4158	1.413	–	–	–	–
[2], x1 = 1	–	–	–	1.4217	1.4192	1.4163	–	–	–	–
